Reference: the NIST ThermoML archive (doi:10.1021/je025649t)
Numbers after ± are expanded uncertainties.

How the values were obtained:
[1] = refractive index (Na D-line) (dimensionless); xn = mol fraction of the nth substance listed; conditions: 298.15 K, 101 kPa, Liquid, refractometer
[2] = heat capacity at constant pressure per volume; xn = mol fraction of the nth substance listed; conditions: 298.15 K, 101 kPa, Liquid, Flow calorimetry
[3] = xn = mol fraction of the nth substance listed; conditions: 298.15 K, 101 kPa, Liquid, Vibrating tube method
[4] = excess molar enthalpy (molar enthalpy of mixing); xn = mol fraction of the nth substance listed; conditions: 298.15 K, 101 kPa, Liquid, Flow calorimetry

O=C1CCCC1 [cyclopentanone] + C1CCOCC1
Conditions	excess molar enthalpy [kcal/mol]	heat capacity [J/K/m3]	mass density [kg/m3]	refractive index
[1], x2 = 0.0723	–	–	–	1.4337 ± 0.00021
[1], x2 = 0.153	–	–	–	1.43231 ± 0.00021
[1], x2 = 0.2311	–	–	–	1.43098 ± 0.00021
[1], x2 = 0.3083	–	–	–	1.42967 ± 0.00021
[1], x2 = 0.3514	–	–	–	1.42895 ± 0.00021
[1], x2 = 0.3917	–	–	–	1.42828 ± 0.00021
[1], x2 = 0.4314	–	–	–	1.42762 ± 0.00021
[1], x2 = 0.4691	–	–	–	1.427 ± 0.00021
[1], x2 = 0.5026	–	–	–	1.42645 ± 0.00021
[1], x2 = 0.5485	–	–	–	1.42571 ± 0.00021
[1], x2 = 0.5911	–	–	–	1.42502 ± 0.00021
[1], x2 = 0.6215	–	–	–	1.42454 ± 0.00021
[1], x2 = 0.6618	–	–	–	1.4239 ± 0.00021
[1], x2 = 0.7097	–	–	–	1.42314 ± 0.00021
[1], x2 = 0.7897	–	–	–	1.42189 ± 0.00021
[1], x2 = 0.8648	–	–	–	1.42073 ± 0.00021
[1], x2 = 0.9456	–	–	–	1.41948 ± 0.00021
[2], x2 = 0.0715	–	1697900 ± 2600	–	–
[2], x2 = 0.1485	–	1683000 ± 2600	–	–
[2], x2 = 0.2279	–	1667700 ± 2600	–	–
[2], x2 = 0.3826	–	1638300 ± 2500	–	–
[2], x2 = 0.4613	–	1623300 ± 2500	–	–
[2], x2 = 0.5422	–	1608000 ± 2500	–	–
[2], x2 = 0.6258	–	1592400 ± 2500	–	–
[2], x2 = 0.6965	–	1579400 ± 2400	–	–
[2], x2 = 0.777	–	1564600 ± 2400	–	–
[2], x2 = 0.8588	–	1549700 ± 2400	–	–
[2], x2 = 0.9378	–	1535300 ± 2400	–	–
[3], x2 = 0.0621	–	–	939.88 ± 0.48	–
[3], x2 = 0.1532	–	–	933.66 ± 0.48	–
[3], x2 = 0.2354	–	–	928.1 ± 0.48	–
[3], x2 = 0.309	–	–	923.12 ± 0.47	–
[3], x2 = 0.3167	–	–	922.64 ± 0.47	–
[3], x2 = 0.346	–	–	920.67 ± 0.47	–
[3], x2 = 0.3516	–	–	920.32 ± 0.47	–
[3], x2 = 0.3936	–	–	917.52 ± 0.47	–
[3], x2 = 0.3997	–	–	917.16 ± 0.47	–
[3], x2 = 0.4297	–	–	915.15 ± 0.47	–
[3], x2 = 0.4312	–	–	915.07 ± 0.47	–
[3], x2 = 0.4661	–	–	912.74 ± 0.47	–
[3], x2 = 0.4676	–	–	912.7 ± 0.47	–
[3], x2 = 0.5105	–	–	909.9 ± 0.47	–
[3], x2 = 0.5187	–	–	909.32 ± 0.47	–
[3], x2 = 0.5466	–	–	907.55 ± 0.47	–
[3], x2 = 0.5498	–	–	907.3 ± 0.47	–
[3], x2 = 0.5959	–	–	904.37 ± 0.46	–
[3], x2 = 0.6289	–	–	902.25 ± 0.46	–
[3], x2 = 0.6335	–	–	901.96 ± 0.46	–
[3], x2 = 0.6618	–	–	900.16 ± 0.46	–
[3], x2 = 0.708	–	–	897.22 ± 0.46	–
[3], x2 = 0.7941	–	–	891.79 ± 0.46	–
[3], x2 = 0.8569	–	–	887.85 ± 0.46	–
[3], x2 = 0.9351	–	–	882.98 ± 0.45	–
[3], x2 = 0.939	–	–	882.71 ± 0.45	–
[4], x2 = 0.1	0.0127 ± 0.000311	–	–	–
[4], x2 = 0.15	0.0181 ± 0.000335	–	–	–
[4], x2 = 0.2	0.023 ± 0.000382	–	–	–
[4], x2 = 0.25	0.0271 ± 0.000406	–	–	–
[4], x2 = 0.3	0.0304 ± 0.00043	–	–	–
[4], x2 = 0.35	0.0331 ± 0.000454	–	–	–
[4], x2 = 0.4	0.0353 ± 0.000454	–	–	–
[4], x2 = 0.45	0.0368 ± 0.000478	–	–	–
[4], x2 = 0.5	0.0377 ± 0.000478	–	–	–
[4], x2 = 0.55	0.0378 ± 0.000478	–	–	–
[4], x2 = 0.6	0.0371 ± 0.000478	–	–	–
[4], x2 = 0.65	0.0357 ± 0.000454	–	–	–
[4], x2 = 0.7	0.0336 ± 0.000454	–	–	–
[4], x2 = 0.75	0.0306 ± 0.00043	–	–	–
[4], x2 = 0.8	0.0267 ± 0.000406	–	–	–
[4], x2 = 0.85	0.0219 ± 0.000382	–	–	–
[4], x2 = 0.9	0.0158 ± 0.000335	–	–	–
